# Data from PMC3655598, “Application of IgG-Derived Natural Treg Epitopes (IgG Tregitopes) to Antigen-Specific Tolerance Induction in a Murine Model of Type 1 Diabetes” (Journal of Diabetes Research, 2013).
# Read-outs that look alike come from different tables or passages of the source. Marks after values point to notes of the source that are not given here. No end group written: not given here.
# How the values were obtained:
# DRB1*0101 = DRB1*0101 (Homo sapiens, UniProt P01903+P01911, A100R/D57E/F55L/F60I/F76Y/I96L/L162R/M171V/P40L/Q125E/R42F/V115G/Y59C); assay: biochemical
# DRB1*0401 = DRB1*0401 (Homo sapiens, UniProt P01903+P01911, A100K/A169T/F76Y/I96L/K127E/L162R/M171V/N62H/P40V/Q125Y/R42H/S133A/S149N/S66Y/V115G/V209L/W38E); conditions: read-out: DRB1*0401 IC50; competition with biotin-Flu-HA 306–318 at 0.1 μM, 24 h, 37°C; NB = non-binder
# DRB1*0701 [1] = molecular target: T1, DRB1*0701 (Homo sapiens, UniProt P01903+P01911, A100R/A102G/A103Q/D57E/D86V/E43K/F76Y/K127E/L162R/M171V/P40G/Q125H/Q99D/R33Q/R42Y/R54Q/S133A/S66F/T210M/V115G/Y107V/Y59L/Y89S); conditions: read-out: DRB1*0701 IC50; competition with biotin-Flu-HA 306–318 at 1 μM, 24 h, 37°C; NB = non-binder
# DRB1*1501 = molecular target: T2, DRB1*1501 (Homo sapiens, UniProt P01903+P01911); assay: competition-based HLA binding assay
# T2 construct: gift: William Kwok, Benaroya Institute, Seattle
# DRB1*0701 [2] = molecular target: T1, DRB1*0701; assay: biochemical
# PBMC = assay: two-step IFNγ ELISpot assay with human PBMC; format: cell-based; conditions: 7 d pre-culture with GAD65 peptide pool, 48 h restimulation, triplicate;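 also: background is unstimulated wells, counts given per 1 million cells, 200,000–250,000 cells per well, restimulated at 37°C, read by Zeiss plate reader, IL-2 and IL-7 fed during pre-culture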
# [3] = Negative Control 668 PBMC, Tregitope + (5 μg/mL each human Tregitopes 167 and 289)
# [4] = Negative Control 668 PBMC, Tregitope −
# [5] = Negative Control 669 PBMC, Tregitope + (5 μg/mL each human Tregitopes 167 and 289)
# [6] = Negative Control 669 PBMC, Tregitope −
# [7] = Negative Control 670 PBMC, Tregitope + (5 μg/mL each human Tregitopes 167 and 289)
# [8] = Negative Control 670 PBMC, Tregitope −
# [9] = Negative Control 674 PBMC, Tregitope + (5 μg/mL each human Tregitopes 167 and 289)
# [10] = Negative Control 674 PBMC, Tregitope −
# [11] = Subject D1101H (T1D) PBMC, Tregitope + (5 μg/mL each human Tregitopes 167 and 289)
# [12] = Subject D1101H (T1D) PBMC, Tregitope −
# [13] = Subject D1104H (T1D) PBMC, Tregitope + (5 μg/mL each human Tregitopes 167 and 289)
# [14] = Subject D1104H (T1D) PBMC, Tregitope −
# [15] = Subject D1105H (T1D) PBMC, Tregitope + (5 μg/mL each human Tregitopes 167 and 289)
# [16] = Subject D1105H (T1D) PBMC, Tregitope −
# [17] = Subject D1106H (T1D) PBMC, Tregitope + (5 μg/mL each human Tregitopes 167 and 289)
# [18] = Subject D1106H (T1D) PBMC, Tregitope −
# [19] = Subject D1100H (T1D) PBMC, Tregitope + (5 μg/mL each human Tregitopes 167 and 289)
# [20] = Subject D1100H (T1D) PBMC, Tregitope −
# [21] = Subject D1107H (T1D) PBMC, Tregitope + (5 μg/mL each human Tregitopes 167 and 289)
# [22] = Subject D1107H (T1D) PBMC, Tregitope −
substance,measurement,setting,value
TTVYGAFDPLLAVAD [GAD65_338–352],IC50,DRB1*0101,4.1 µM
same,IC50,DRB1*0401,> 50 µM
same,IC50,DRB1*0701 [1],> 50 µM
same,IC50,"DRB1*1501; competition with biotin-MBP 84–102 at 0.5 μM, 24 h, 37°C, NB = non-binder, read-out: DRB1*1501 IC50",31.3 µM
VDVFKLWLMWRAKGTTGFEAH [GAD65_450–470],IC50,DRB1*0101,25.4 µM
same,IC50,DRB1*0401,> 50 µM
same,IC50,DRB1*0701 [2],10.2 µM
same,IC50,DRB1*1501,11.4 µM
GAISNMYAMMIARFKMFPEVKEKGM [GAD65_243–267],IC50,DRB1*0101,< 5 µM
same,IC50,DRB1*0701 [2],8.7 µM
same,IC50,DRB1*1501,< 5 µM
NMFTYEIAPVFVLLEYVTLKKMRE [GAD65_203–226],IFNγ ELISpot SFC over background,PBMC; [3],460 SFC over BG/10^6
same,IFNγ ELISpot SFC over background,PBMC; [4],475 SFC over BG/10^6
same,IFNγ ELISpot SFC over background,PBMC; [5],52 SFC over BG/10^6
same,IFNγ ELISpot SFC over background,PBMC; [6],109 SFC over BG/10^6
same,IFNγ ELISpot SFC over background,PBMC; [7],82** SFC over BG/10^6
same,IFNγ ELISpot SFC over background,PBMC; [8],329 SFC over BG/10^6
same,IFNγ ELISpot SFC over background,PBMC; [9],109 SFC over BG/10^6
same,IFNγ ELISpot SFC over background,PBMC; [10],168 SFC over BG/10^6
same,IFNγ ELISpot SFC over background,PBMC; [11],51 SFC over BG/10^6
same,IFNγ ELISpot SFC over background,PBMC; [12],157 SFC over BG/10^6
same,IFNγ ELISpot SFC over background,PBMC; [13],154 SFC over BG/10^6
same,IFNγ ELISpot SFC over background,PBMC; [14],221 SFC over BG/10^6
same,IFNγ ELISpot SFC over background,PBMC; [15],138* SFC over BG/10^6
same,IFNγ ELISpot SFC over background,PBMC; [16],245 SFC over BG/10^6
same,IFNγ ELISpot SFC over background,PBMC; [17],138 SFC over BG/10^6
same,IFNγ ELISpot SFC over background,PBMC; [18],207 SFC over BG/10^6
same,IC50,DRB1*0401,< 25 µM
LGDKVNFFRMVISNPAATHQD [GAD65_550–570],IFNγ ELISpot SFC over background,PBMC; [3],440 SFC over BG/10^6
same,IFNγ ELISpot SFC over background,PBMC; [4],312 SFC over BG/10^6
same,IFNγ ELISpot SFC over background,PBMC; [5],30** SFC over BG/10^6
same,IFNγ ELISpot SFC over background,PBMC; [6],144 SFC over BG/10^6
same,IFNγ ELISpot SFC over background,PBMC; [7],−90 SFC over BG/10^6
same,IFNγ ELISpot SFC over background,PBMC; [8],25 SFC over BG/10^6
same,IFNγ ELISpot SFC over background,PBMC; [9],431 SFC over BG/10^6
same,IFNγ ELISpot SFC over background,PBMC; [10],490 SFC over BG/10^6
same,IFNγ ELISpot SFC over background,PBMC; [19],141 SFC over BG/10^6
same,IFNγ ELISpot SFC over background,PBMC; [20],199 SFC over BG/10^6
same,IFNγ ELISpot SFC over background,PBMC; [11],100 SFC over BG/10^6
same,IFNγ ELISpot SFC over background,PBMC; [12],126 SFC over BG/10^6
same,IFNγ ELISpot SFC over background,PBMC; [13],101 SFC over BG/10^6
same,IFNγ ELISpot SFC over background,PBMC; [14],146 SFC over BG/10^6
same,IFNγ ELISpot SFC over background,PBMC; [15],228* SFC over BG/10^6
same,IFNγ ELISpot SFC over background,PBMC; [16],352 SFC over BG/10^6
same,IFNγ ELISpot SFC over background,PBMC; [17],113 SFC over BG/10^6
same,IFNγ ELISpot SFC over background,PBMC; [18],88 SFC over BG/10^6
same,IFNγ ELISpot SFC over background,PBMC; [21],1** SFC over BG/10^6
same,IFNγ ELISpot SFC over background,PBMC; [22],160 SFC over BG/10^6
same,IC50,DRB1*0401,< 25 µM
"GAD65 protein: whole GAD65 protein (Kronus, UK)",IFNγ ELISpot SFC over background,PBMC; [9],818 SFC over BG/10^6
same,IFNγ ELISpot SFC over background,PBMC; [10],44 SFC over BG/10^6
same,IFNγ ELISpot SFC over background,PBMC; [19],77 SFC over BG/10^6
same,IFNγ ELISpot SFC over background,PBMC; [20],413 SFC over BG/10^6
same,IFNγ ELISpot SFC over background,PBMC; [11],59 SFC over BG/10^6
same,IFNγ ELISpot SFC over background,PBMC; [12],37 SFC over BG/10^6
same,IFNγ ELISpot SFC over background,PBMC; [13],69 SFC over BG/10^6
same,IFNγ ELISpot SFC over background,PBMC; [14],32 SFC over BG/10^6
same,IFNγ ELISpot SFC over background,PBMC; [17],591 SFC over BG/10^6
same,IFNγ ELISpot SFC over background,PBMC; [18],670 SFC over BG/10^6
same,IFNγ ELISpot SFC over background,PBMC; [21],46 SFC over BG/10^6
same,IFNγ ELISpot SFC over background,PBMC; [22],95 SFC over BG/10^6
